Values joined by “and” are separate entries in the source; they are usually repeats but may differ in a detail not shown here. Equal values may be shown once. “Also recorded” adds a separate entry of the source. Marks after values point to notes of the source that are not given here.
How the values were obtained:
[1] = molecular target: Sodium Channel Binding Site 2 in Rat Brain Membranes; details: 3H-batrachotoxinin 5 nM, 37° C. 60 minutes, read-out: IC50 (inhibition of specific binding of 3H-batrachotoxinin)
[2] = tested on: Male Hooded Wistar rats, spinal cord injury (SCI); test: Reversible spinal cord injury model: horizontal ladder test; assay type: in vivo, rat; details: versus SCI+saline controls at the same time
Description: (§1) Male Hooded Wistar rats were anesthetized (2% isoflurane/98% oxygen), and laminectomy performed at spinal level T12. An inflatable balloon catheter was inserted rostral, underneath the vertebra, to T10 and inflated for 5 minutes, causing reversible paraplegia (Feldblum, et al., 2000). […] Rats had almost complete functional recovery by 15 d. Compound 1 (15 nmol/g and 60 nmol/g), mexiletine (60 nmol/g) and vehicle (5 ml/kg) were administered i.p, at 3 h after the injury and twice daily thereafter, until killed. Behavioural tests were conducted every 3 days. At 15 d post-injury, rats were anesthetized and transcardially perfused, to fix the spinal cords. Sections were cut and processed to examine the size of the cyst and modulatory effects of treatments or control on lesion formation.
Ladder test: In the horizontal ladder test, rats are placed onto a beam which is randomly missing rungs, this prevents rats from adapting and compensating for any deficits following SCI. […] The results are depicted in FIG. 4. […] Data is expressed as the percentage of foot misplacements made of the total number of steps taken, using a combined score for both hindlimbs. […] Each rat acted as its own control, and results compared with pre-injury scores (0 h after SCI). […]

[3] = tested on: Male Hooded Wistar rats, spinal cord injury (SCI); test: Reversible spinal cord injury model: volume of damage from H & E stained sections; assay type: in vivo, rat; details: equivalent mole dose, compared to SCI+saline, n=4
Description: as §1
(§2) Volume of damage: Effects of treatment were measured first from H & E stained sections. […] Data are mean±SEM of measurements from n=4 rats per treatment group. Secondly, the sparing of spinal cord tissue by Compound 1 and mexiletine treatment was assessed by more detailed histological staining techniques.

[4] = tested on: Male Hooded Wistar rats, spinal cord injury (SCI); test: Reversible spinal cord injury model: ledged beam task; assay type: in vivo, rat; details: for use of the support ledge, ledged beam task: after SCI, versus saline-treated controls
Description: as §1
Ledged beam: Effects of Compound 1 and mexiletine, and SCI+saline controls on recovery of function following spinal cord compression injury as assessed by the number of steps using the support ledge on the ledged beam task. The results are depicted in FIG. 5. Sham-SCI rats walked the length of the ledged beam with approximately 10% of steps made on the supporting ledge. […] Data is expressed as ledge use/errors made as a percentage of total steps taken with both hindlimbs after SCI. Each rat acted as its own control, and results compared with pre-injury scores (0 h after SCI). ANOVA followed by Bonferroni post-test: [F(24,273)=5.12, P<0.0001], *P<0.05, **P<0.01, ***P<0.001 Compound 1 (60 nmol/g) versus the SCI+saline controls at the same time; †P<0.05 Compound 1 (15 nmol/g) versus SCI+saline controls at the same time. […] Data are mean±SEM. n=6-11 rats in each group.

[5] = tested on: Male Hooded Wistar rats, spinal cord injury (SCI); test: Reversible spinal cord injury model: percentage of white and gray matter spared at the epicentre (H & E, Luxol Fast blue, cresyl violet); assay type: in vivo, rat
Description: as §1, §2

[6] = tested on: Male Hooded Wistar rats, spinal cord injury (SCI); test: Reversible spinal cord injury model: BBB open-field locomotor score; assay type: in vivo, rat; details: i.p. 3 h after injury and twice daily, 15 days; versus vehicle treated controls
Description: as §1
BBB scale: Effects of Compound 1 and mexiletine treatment on the time course of functional recovery, following SCI, assessed with the BBB open-field locomotor score. […] Each rat acted as its own control, and results after SCI compared with pre-injury scores (0 h after SCI). Data are mean±SEM. ANOVA followed by Bonferroni post-test: [F(24,273)=10.57, P<0.0001], *P<0.05, **P<0.01, ***P<0.001 Compound 1 (60 nmol/g) versus the SCI+saline controls at the same time; †P<0.05 Compound 1 (15 nmol/g) or mexiletine (60 nmol/g) versus SCI+saline controls at the same time.

[7] = tested on: Male Hooded Wistar rats, spinal cord injury (SCI); test: Reversible spinal cord injury model: neuronal cell body counts by NeuN immunostaining; assay type: in vivo, rat; details: for loss of white matter and gray matter (rostro-caudal serial sections, neuronal cell body counts): after SCI, versus saline treatment
Description: as §1, §2

[8] = tested on: Male Sprague-Dawley rats, L5 nerve ligated and cut; test: Rat L5 nerve cut model of neuropathic pain, Von Frey filament withdrawal threshold (allodynia); assay type: in vivo; details: for grams of force needed to withdraw left limb: left hind paw, nerve cut; for grams of force needed to withdraw left limb / grams of force needed to withdraw right limb: individual rats #17-#20; for effect on allodynia: left paw, 4 rats; for grams of force needed to withdraw right limb: right hind paw, nerve intact
Description: The following method is based on the method published by Chaplan et al, 1994. Male Sprague-Dawley rats from one litter were weaned when 19 days old and acclimatized for the next two days in the Animal House where the experiment was to be carried out. From days 21 to 25, rats were tested using a set of Von Frey monofilaments to test the mechanical withdrawal threshold of the hindpaws. The monofilaments were applied in increasing force until the rat withdrew the hind paw being tested. […] Rats were anaesthetized with a halothane/oxygen (5:95) gas mixture and a dorsal midline incision was made on the rat's lower back to expose the left lumbar region either side of the hip. Bone was clipped away to expose the L4 and L5 nerves distal to their emergence from the intervertebral foramina. The L5 nerve was then isolated using a glass hook, ligated and cut on the peripheral side of the ligation. The incision was then closed with suture threads and the anaesthetic gas discontinued. The next day rats underwent testing with the graded Von Frey filaments to the hind paws to determine if allodynia was present in the left paw as compared to the right hind paw. Testing was repeated on these rats until they were 28 days old. […] Rats were then tested with graded Von Frey filaments at 45 minutes and 90 minutes after injection in order to determine if allodynia had been blocked.

[9] = +0.5 mm from epicentre, 60 nmol/g
[10] = +1 mm from epicentre, 60 nmol/g
[11] = +1.5 mm from epicentre, 60 nmol/g
[12] = +2 mm from epicentre, 60 nmol/g
[13] = +2.5 mm from epicentre, 60 nmol/g
[14] = −0.5 mm from epicentre, 60 nmol/g
[15] = −1 mm from epicentre, 60 nmol/g
[16] = −1.5 mm from epicentre, 60 nmol/g
[17] = −2 mm from epicentre, 60 nmol/g
[18] = −2.5 mm from epicentre, 60 nmol/g

CC(C)c1cccc(C(C)C)c1OCCCNCc1cc(C(C)(C)C)c(O)c(C(C)(C)C)c1 [Compound 4]
IC50 [1]: 90 nM

Cc1cccc(C)c1OCCCNCc1ccc(N2N=CC(C)C2=O)cc1 (stereo not shown) [Comparative A, reference compound]
IC50 [1]: 11000 nM

COc1cccc(OC)c1OCCCNCc1cc(C(C)(C)C)c(O)c(C(C)(C)C)c1 [Compound 3]
IC50 [1]: 107 nM

Cc1cccc(C)c1OCCCNCc1cc(C(C)(C)C)c(O)c(C(C)(C)C)c1 [Compound 8]
IC50 [1]: 179 nM

Cc1cccc(C)c1OCC(C)N (stereo not shown) [Mexiletine, mexiletine, reference compound]
number of hind-limb foot misplacements, horizontal ladder test [2]: decreased the number of hind-limb foot misplacements | IC50 [1]: 11000 nM | volume of damage (H & E stained sections) [3]: reduced damage compared to SCI+saline | ledge use, statistical difference from SCI+saline ([4]; 60 nmol/g, Bonferroni post-test): no significant difference from SCI+saline at any time | use of the support ledge, ledged beam task [4]: significantly reduced | GRAY MATTER spared, % MEAN ([5]; 60 nmol/g): 77.9* % | TOTAL TISSUE spared, % MEAN ([5]; 60 nmol/g): 70.5* % | WHITE MATTER spared, % MEAN ([5]; 60 nmol/g): 66.3* % | rate of functional recovery following SCI, BBB open-field locomotor score [6]: significantly increased the rate of recovery | No. of motor neurons Per sq mm, Mean ([7]; 0.0 mm (epicentre), 60 nmol/g): 7* Per sq mm | No. of motor neurons Per sq mm, Mean [7, 9]: 10* Per sq mm | No. of motor neurons Per sq mm, Mean [7, 10]: 17* Per sq mm | No. of motor neurons Per sq mm, Mean [7, 11]: 24* Per sq mm | No. of motor neurons Per sq mm, Mean [7, 12]: 30 Per sq mm | No. of motor neurons Per sq mm, Mean [7, 13]: 27 Per sq mm | loss of white matter and gray matter (rostro-caudal serial sections, neuronal cell body counts) [7]: reduced loss of both white matter and gray matter | No. of motor neurons Per sq mm, Mean [7, 14]: 11* Per sq mm | No. of motor neurons Per sq mm, Mean [7, 15]: 17* Per sq mm | No. of motor neurons Per sq mm, Mean [7, 16]: 26 Per sq mm | No. of motor neurons Per sq mm, Mean [7, 17]: 33 Per sq mm | No. of motor neurons Per sq mm, Mean [7, 18]: 31 Per sq mm

Cc1cccc(C)c1OCC(C)NCc1cc(C(C)(C)C)c(O)c(C(C)(C)C)c1 (stereo not shown) [Compound 1]
number of hind-limb foot misplacements, horizontal ladder test [2]: decreased the number of hind-limb foot misplacements | IC50 [1]: 134 nM | volume of damage (H & E stained sections) [3]: reduced damage compared to SCI+saline | use of the support ledge, ledged beam task [4]: significantly reduced | GRAY MATTER spared, % MEAN ([5]; 15 nmol/g): 80* % | TOTAL TISSUE spared, % MEAN ([5]; 15 nmol/g): 74.3* % | WHITE MATTER spared, % MEAN ([5]; 15 nmol/g): 63.6* % | GRAY MATTER spared, % MEAN ([5]; 60 nmol/g): 88.9* % | TOTAL TISSUE spared, % MEAN ([5]; 60 nmol/g): 83.9* % | WHITE MATTER spared, % MEAN ([5]; 60 nmol/g): 81.1* % | rate of functional recovery following SCI, BBB open-field locomotor score [6]: significantly increased the rate of recovery | grams of force needed to withdraw left limb ([8]; 45 min post i.p. 70 nmol/g): 11.44 g and 17.8 g (3×) | grams of force needed to withdraw left limb ([8]; 90 min post i.p. 70 nmol/g): 3.7 g and 10.9 g and 17.8 g (2×) | effect on allodynia ([8]; 45 minutes after i.p. 70 nmol/g): allodynia had been completely eliminated in 3 of the rats | effect on allodynia ([8]; 90 minutes after i.p. 70 nmol/g): allodynia had still been eliminated in 2 rats | grams of force needed to withdraw right limb ([8]; 45 min post i.p. 70 nmol/g): 17.8 g | grams of force needed to withdraw right limb ([8]; 90 min post i.p. 70 nmol/g): 17.8 g | generalized anaesthesia (response of right hindpaw to filaments) ([8]; right hindpaw, 45 or 90 minutes after injection): did not cause a generalized anaesthesia | No. of motor neurons Per sq mm, Mean ([7]; 0.0 mm (epicentre), 15 nmol/g): 9* Per sq mm | No. of motor neurons Per sq mm, Mean ([7]; 0.0 mm (epicentre), 60 nmol/g): 15* Per sq mm | No. of motor neurons Per sq mm, Mean ([7]; +0.5 mm from epicentre, 15 nmol/g): 10* Per sq mm | No. of motor neurons Per sq mm, Mean [7, 9]: 16* Per sq mm | No. of motor neurons Per sq mm, Mean ([7]; +1 mm from epicentre, 15 nmol/g): 14* Per sq mm | No. of motor neurons Per sq mm, Mean [7, 10]: 22* Per sq mm | No. of motor neurons Per sq mm, Mean ([7]; +1.5 mm from epicentre, 15 nmol/g): 25* Per sq mm | No. of motor neurons Per sq mm, Mean [7, 11]: 29* Per sq mm | No. of motor neurons Per sq mm, Mean ([7]; +2 mm from epicentre, 15 nmol/g): 28 Per sq mm | No. of motor neurons Per sq mm, Mean [7, 12]: 28 Per sq mm | No. of motor neurons Per sq mm, Mean ([7]; +2.5 mm from epicentre, 15 nmol/g): 29 Per sq mm | No. of motor neurons Per sq mm, Mean [7, 13]: 30 Per sq mm | loss of white matter and gray matter (rostro-caudal serial sections, neuronal cell body counts) [7]: reduced loss of both white matter and gray matter; also recorded: more effective than Mexiletine | No. of motor neurons Per sq mm, Mean ([7]; −0.5 mm from epicentre, 15 nmol/g): 11* Per sq mm | No. of motor neurons Per sq mm, Mean [7, 14]: 17* Per sq mm | No. of motor neurons Per sq mm, Mean ([7]; −1 mm from epicentre, 15 nmol/g): 18* Per sq mm | No. of motor neurons Per sq mm, Mean [7, 15]: 23* Per sq mm | No. of motor neurons Per sq mm, Mean ([7]; −1.5 mm from epicentre, 15 nmol/g): 26 Per sq mm | No. of motor neurons Per sq mm, Mean [7, 16]: 26 Per sq mm | No. of motor neurons Per sq mm, Mean ([7]; −2 mm from epicentre, 15 nmol/g): 29 Per sq mm | No. of motor neurons Per sq mm, Mean [7, 17]: 30 Per sq mm | No. of motor neurons Per sq mm, Mean ([7]; −2.5 mm from epicentre, 15 nmol/g): 27 Per sq mm | No. of motor neurons Per sq mm, Mean [7, 18]: 30 Per sq mm

CC(C)(C)c1cc(CNCCCOc2ccncc2)cc(C(C)(C)C)c1O [Compound 7]
IC50 [1]: 870 nM

CC(C)c1cncc(C(C)C)c1OCCCNCc1cc(C(C)(C)C)c(O)c(C(C)(C)C)c1 [Compound 5]
IC50 [1]: 380 nM

CC(C)(C)c1cc(CNCCCOc2c(Cl)cccc2Cl)cc(C(C)(C)C)c1O [Compound 2]
IC50 [1]: 105 nM

CC(C)(C)c1cc(CNCCCOc2ccccc2)cc(C(C)(C)C)c1O [Compound 6]
IC50 [1]: 236 nM

From patent publication US8716528B2, “Aryloxy amine compounds and their use as sodium channel modulators” (Howard Florey Institute, priority 2007, dated 2014)
